Values belong to the compound of their own block, whether it stands above or below them. The source made the active and inactive calls. The calls are words filed in the database; no cut-off is given here.
Key:
[1] = system: K562; assay: cells; conditions: Homo sapiens, K562, 48 h, read-out: Activity
[2] = system: THP-1; assay: Antiproliferative activity against human THP-1 cells after 48 hrs by MTT assay; type: functional; design: concentration or dose not given beside the values
[3] = system: K562; assay: cells; conditions: Homo sapiens, K562, 48 h, read-out: Activity; remark: listed apart in the source
[4] = system: K562; assay: cells; conditions: Homo sapiens, K562, 48 h, read-out: Activity; remark: listed apart in the source
[5] = system: K562; assay: cells; conditions: Homo sapiens, K562, 48 h
[6] = system: HEK293; assay: Antiproliferative activity against HEK293 cells after 48 hrs by MTT assay; type: toxicity, cell-based; design: concentration or dose not given beside the values; conditions: human, hek293, 48 h
[7] = system: K562; assay: Induction of apoptosis in human K562 cells assessed as early apoptotic cells at 15 uM measured after 48 hrs by annexin-V/FITC and propidium iodide double staining based flow cytometry analysis (reference value: 1.96%); type: functional
[8] = target: T1, Bcr/Abl fusion protein (Homo sapiens) (UniProt P00519+P11274); assay: Inhibition of wild type BCR-ABL in human K562 cells assessed as inhibition of STAT5 phosphorylation level at 20 uM measured after 48 hrs by Western blot analysis; type: cell-based
[9] = system: K562; assay: Induction of apoptosis in human K562 cells assessed as late apoptotic cells at 1 uM measured after 48 hrs by annexin-V/FITC and propidium iodide double staining based flow cytometry analysis (reference value: 12.03%); type: functional
[10] = system: K562; assay: Induction of apoptosis in human K562 cells assessed as necrotic cells at 10 uM measured after 48 hrs by annexin-V/FITC and propidium iodide double staining based flow cytometry analysis (reference value: 0.27%); type: functional
[11] = system: BaF3; assay: Antiproliferative activity against mouse BaF3 cells harbouring Bcr-Abl T315I assessed of cell viability at 30 uM incubated for 72 hrs by Celltiter-glo luminescent cell viability assay relative to control; type: functional
[12] = target: T1, Bcr/Abl fusion protein (Homo sapiens); assay: Inhibition of wild type BCR-ABL in human K562 cells assessed as inhibition of Bcr-Abl phosphorylation level at high concentration measured after 48 hrs by Western blot analysis; type: cell-based
[13] = system: K562; assay: Induction of apoptosis in human K562 cells assessed as necrotic cells at 1 uM measured after 48 hrs by annexin-V/FITC and propidium iodide double staining based flow cytometry analysis (reference value: 0.27%); type: functional
[14] = system: K562; assay: Induction of apoptosis in human K562 cells assessed as late apoptotic cells at 10 uM measured after 48 hrs by annexin-V/FITC and propidium iodide double staining based flow cytometry analysis (reference value: 12.03%); type: functional
[15] = system: K562; assay: Induction of apoptosis in human K562 cells assessed as late apoptotic cells at 15 uM measured after 48 hrs by annexin-V/FITC and propidium iodide double staining based flow cytometry analysis (reference value: 12.03%); type: functional
[16] = target: T1, Bcr/Abl fusion protein (Homo sapiens); assay: Inhibition of wild type BCR-ABL in human K562 cells assessed as inhibition of Bcr-Abl phosphorylation level at 20 uM measured after 48 hrs by Western blot analysis; type: cell-based
[17] = system: K562; assay: Induction of cell cycle arrest in human K562 cells assessed as increase in accumulation of cells at G0/G1 phase at 1 to 15 uM measured after 48 hrs by PI staining based flow cytometry analysis; type: functional; conditions: dose 1-15 µM
[18] = system: BaF3; assay: Antiproliferative activity against mouse BaF3 cells harbouring Bcr-Abl T315I assessed of cell viability at 10 uM incubated for 72 hrs by Celltiter-glo luminescent cell viability assay relative to control; type: functional
[19] = system: K562; assay: Induction of cell cycle arrest in human K562 cells assessed as reduction in accumulation of cells at S phase at 1 to 15 uM measured after 48 hrs by PI staining based flow cytometry analysis; type: functional; conditions: dose 1-15 µM
[20] = target: Bcr/Abl fusion protein (Homo sapiens, UniProt P00519); assay: Inhibition of wild type Bcr-Abl (unknown origin) using Abltide as substrate incubated for 1 hr by luminescence based ADP-glo assay; type: protein assay
[21] = system: BaF3; assay: Antiproliferative activity against mouse BaF3 cells harbouring Bcr-Abl T315I assessed of cell viability at 2 uM incubated for 72 hrs by Celltiter-glo luminescent cell viability assay relative to control; type: functional
[22] = system: K562; assay: Induction of apoptosis in human K562 cells assessed as viable cells at 1 uM measured after 48 hrs by annexin-V/FITC and propidium iodide double staining based flow cytometry analysis (reference value: 85.73%); type: functional; conditions: read-out: Activity
[23] = Inhibition of Bcr-Abl T315Ialpha mutant (unknown origin) using Abltide as substrate incubated for 1 hr by luminescence based ADP-glo assay; design: species or system Homo sapiens
[24] = target: T1, Bcr/Abl fusion protein (Homo sapiens); assay: Inhibition of wild type BCR-ABL in human K562 cells assessed as inhibition of STAT5 phosphorylation level at high concentration measured after 48 hrs by Western blot analysis; type: cell-based
[25] = system: K562; assay: Induction of apoptosis in human K562 cells assessed as viable cells at 15 uM measured after 48 hrs by annexin-V/FITC and propidium iodide double staining based flow cytometry analysis (reference value: 85.73%); type: functional; conditions: read-out: Activity
[26] = system: K562; assay: Induction of apoptosis in human K562 cells assessed as viable cells at 10 uM measured after 48 hrs by annexin-V/FITC and propidium iodide double staining based flow cytometry analysis (reference value: 85.73%); type: functional; conditions: read-out: Activity
[27] = system: K562; assay: Induction of apoptosis in human K562 cells assessed as early apoptotic cells at 1 uM measured after 48 hrs by annexin-V/FITC and propidium iodide double staining based flow cytometry analysis (reference value: 1.96%); type: functional
[28] = system: K562; assay: Induction of apoptosis in human K562 cells assessed as early apoptotic cells at 10 uM measured after 48 hrs by annexin-V/FITC and propidium iodide double staining based flow cytometry analysis (reference value: 1.96%); type: functional
[29] = system: K562; assay: Induction of apoptosis in human K562 cells assessed as necrotic cells at 15 uM measured after 48 hrs by annexin-V/FITC and propidium iodide double staining based flow cytometry analysis (reference value: 0.27%); type: functional

T1 sequence (P00519 whole entry, looked up, the tested form may be a part): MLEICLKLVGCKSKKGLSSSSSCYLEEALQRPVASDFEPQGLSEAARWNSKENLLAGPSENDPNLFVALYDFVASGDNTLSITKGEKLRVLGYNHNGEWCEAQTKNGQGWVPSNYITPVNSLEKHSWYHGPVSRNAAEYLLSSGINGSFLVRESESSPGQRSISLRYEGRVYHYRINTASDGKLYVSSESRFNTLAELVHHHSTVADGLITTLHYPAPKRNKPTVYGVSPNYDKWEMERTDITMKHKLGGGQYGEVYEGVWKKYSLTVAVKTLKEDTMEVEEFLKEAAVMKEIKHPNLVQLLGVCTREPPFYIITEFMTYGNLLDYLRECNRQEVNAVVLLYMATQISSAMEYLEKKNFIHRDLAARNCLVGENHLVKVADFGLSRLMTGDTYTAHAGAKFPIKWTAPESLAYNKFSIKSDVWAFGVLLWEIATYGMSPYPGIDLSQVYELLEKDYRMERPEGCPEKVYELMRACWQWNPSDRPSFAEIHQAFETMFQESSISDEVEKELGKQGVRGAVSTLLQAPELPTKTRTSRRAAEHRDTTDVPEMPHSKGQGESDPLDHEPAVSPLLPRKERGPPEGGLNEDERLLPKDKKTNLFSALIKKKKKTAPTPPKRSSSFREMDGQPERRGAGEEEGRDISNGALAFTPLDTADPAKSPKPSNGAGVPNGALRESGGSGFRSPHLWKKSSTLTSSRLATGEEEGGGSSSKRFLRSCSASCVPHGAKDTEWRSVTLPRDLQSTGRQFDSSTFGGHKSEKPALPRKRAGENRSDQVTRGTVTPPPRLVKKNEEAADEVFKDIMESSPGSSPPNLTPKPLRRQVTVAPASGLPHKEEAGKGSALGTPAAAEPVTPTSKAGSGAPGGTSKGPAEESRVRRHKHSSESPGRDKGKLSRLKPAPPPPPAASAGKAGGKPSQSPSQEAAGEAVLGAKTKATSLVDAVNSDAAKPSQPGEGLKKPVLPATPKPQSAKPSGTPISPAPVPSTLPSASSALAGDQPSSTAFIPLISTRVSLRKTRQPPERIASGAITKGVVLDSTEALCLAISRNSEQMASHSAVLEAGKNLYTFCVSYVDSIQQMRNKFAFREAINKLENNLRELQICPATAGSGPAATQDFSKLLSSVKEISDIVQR
T1 sequence (P11274 whole entry, looked up, the tested form may be a part): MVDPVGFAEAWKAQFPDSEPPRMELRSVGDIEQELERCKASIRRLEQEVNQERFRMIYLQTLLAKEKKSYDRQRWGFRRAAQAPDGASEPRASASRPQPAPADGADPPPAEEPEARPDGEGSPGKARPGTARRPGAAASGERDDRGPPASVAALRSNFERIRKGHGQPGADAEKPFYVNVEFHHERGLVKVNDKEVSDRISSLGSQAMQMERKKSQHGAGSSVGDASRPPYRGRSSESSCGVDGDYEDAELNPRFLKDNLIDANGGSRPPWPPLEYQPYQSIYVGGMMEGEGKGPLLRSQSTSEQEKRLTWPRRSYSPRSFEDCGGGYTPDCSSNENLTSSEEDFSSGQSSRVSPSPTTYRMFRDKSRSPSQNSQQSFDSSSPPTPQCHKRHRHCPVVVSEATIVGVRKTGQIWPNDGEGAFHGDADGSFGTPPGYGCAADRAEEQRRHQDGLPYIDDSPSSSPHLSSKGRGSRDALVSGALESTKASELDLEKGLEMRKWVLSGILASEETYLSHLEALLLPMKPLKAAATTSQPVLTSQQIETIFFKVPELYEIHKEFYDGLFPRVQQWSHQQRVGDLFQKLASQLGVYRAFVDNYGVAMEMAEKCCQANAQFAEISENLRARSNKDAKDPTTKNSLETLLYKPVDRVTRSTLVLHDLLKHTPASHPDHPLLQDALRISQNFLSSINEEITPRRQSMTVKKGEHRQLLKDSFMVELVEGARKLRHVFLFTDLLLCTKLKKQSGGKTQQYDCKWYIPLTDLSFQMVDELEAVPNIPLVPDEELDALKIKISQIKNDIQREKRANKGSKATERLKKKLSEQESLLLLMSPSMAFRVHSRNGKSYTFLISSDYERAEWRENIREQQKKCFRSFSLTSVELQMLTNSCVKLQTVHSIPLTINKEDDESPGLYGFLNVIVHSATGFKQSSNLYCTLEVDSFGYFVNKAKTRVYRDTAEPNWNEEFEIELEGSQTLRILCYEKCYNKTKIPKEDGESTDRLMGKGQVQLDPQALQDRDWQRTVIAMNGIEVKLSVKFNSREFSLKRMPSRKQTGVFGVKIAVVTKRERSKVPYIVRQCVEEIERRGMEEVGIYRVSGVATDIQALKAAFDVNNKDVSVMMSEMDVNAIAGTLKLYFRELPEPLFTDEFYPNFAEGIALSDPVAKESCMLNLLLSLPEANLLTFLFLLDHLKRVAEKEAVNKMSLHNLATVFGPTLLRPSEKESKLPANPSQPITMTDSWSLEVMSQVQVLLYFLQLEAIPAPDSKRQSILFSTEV
Bcr/Abl fusion protein, sequence (P00519 whole entry, the tested form may be a part): as the sequence (P00519 whole entry, looked up, the tested form may be a part) above
Bcr/Abl fusion protein, sequence (P11274 whole entry, further chain, the tested form may be a part): as the sequence (P11274 whole entry, looked up, the tested form may be a part) above

Structure (SMILES): Cc1ccc(NC(=O)c2ccc(CN3CCN(C)CC3)cc2)cc1Nc1nccc(-c2cccnc2)n1 [IMATINIB]
viability at 10 µM [1]: 67.4%
Activity [2]: 100%
viability at 1 µM [3]: 72.9%
viability at 5 µM [4]: 74.3%
IC50 [5]: 2.03 nM
Activity [6]: 87%

inhibition [8]: Active
inhibition [12]: Active
inhibition [16]: Active
IC50 [20]: 5.01 nM
IC50 [5]: 2.04 nM
IC50 [23]: 122 nM
inhibition [24]: Active
Structure (SMILES): CC(C)(C)C(=O)Nc1cc(-c2ccc(C(=O)N[C@@H](CO)C(=O)Nc3ccc(Cl)c(C(F)(F)F)c3)cc2)ccn1
Activity [7]: 2.21%
Activity [9]: 16.63%
Activity [10]: 1.39%
Activity [2]: 54%
inhibition at 30 µM [11]: 99.2%
Activity [13]: 1.75%
Activity [14]: 21.34%
Activity [15]: 24.21%
Activity [17]: inactive
inhibition at 10 µM [18]: 99.9%
Activity [19]: inactive
inhibition at 2 µM [21]: 0.2%
viability at 1 µM [22]: 76.5%
Activity [6]: 87%
viability at 15 µM [25]: 69.6%
viability at 10 µM [26]: 74.4%
Activity [27]: 5.12%
Activity [28]: 2.83%
Activity [29]: 3.98%
